US20240140957A1, “BRIDGED COMPOUNDS AS KRAS G12D INHIBITOR AND DEGRADER AND THE USE THEREOF” (BeiGene Switzerland GmbH, priority 2021, published 2024)

Tests used:
[1] = test system: pERK1/2 (THR202/TYR204) in AsPC-1 cells; assay: pERK Assay (HTRF) in AsPC-1 cells; assay type: cell-based; details: Homo sapiens, ASPC1, 2 h compound treatment
Experimental: AsPC-1 cell line was used in this study. […] 30000 cells per well were seeded into a 96-well plate and incubated overnight. […] After 2 h compound treatment, cells were lysed, and the pERK1/2 (THR202/TYR204) level in the cell lysates was detected by HTRF kit (Cisbio). In brief, a total of 16 μL of cell lysate from each well of a 96-well plate was transferred to a 384-well white assay plate. Lysate from each well was incubated with 2 μL of Eu3+-cryptate (donor) labeled anti-phospho-ERK1/2 and 2 μL of D2 (acceptor) labeled anti-phospho-ERK1/2 antibodies (Cisbio) overnight in dark at room temperature. When donor and acceptor are in close proximity, excitation of the donor with laser triggers a Fluorescence Resonance Energy Transfer (FRET) towards the acceptor, which in turn fluoresces at 655 nm wavelength. FRET signals were measured using a PHERAstar FSX reader (BMG Labtech).

KRAS G12D:SOS1 = KRAS G12D:SOS1 (Homo sapiens, UniProt P01116, G12D); assay: KRAS G12D:SOS1 GDP TR-FRET assay; assay type: binding; details: GST-KRAS G12D 37.5 nM, GDP 10 μM, His-SOS1 18 nM
Chain of KRAS G12D:SOS1 (P01116 1-188 isoform P01116-2 G12D): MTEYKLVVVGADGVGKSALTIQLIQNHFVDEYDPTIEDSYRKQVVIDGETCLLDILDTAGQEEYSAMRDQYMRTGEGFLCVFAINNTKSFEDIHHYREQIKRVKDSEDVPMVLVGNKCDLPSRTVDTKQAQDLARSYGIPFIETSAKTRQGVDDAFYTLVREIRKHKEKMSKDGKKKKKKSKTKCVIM
Experimental: (§1) KRAS:SOS1 GDP TR-FRET Assay
(§2) This assay was used to identify compounds which competitively interact with the binding of KRAS protein to SOS1 in the presence of GDP. […] All protein and reaction solutions were prepared in assay buffer containing DPBS pH7.5, 0.1% BSA, and 0.05% Tween 20. Purified GST-tagged WT KRAS or KRAS G12D protein (37.5 nM final assay concentration) and GDP (Sigma, 10 μM final assay concentration) mixture, a serially diluted compound (top final concentration is 50 μM or 10 uM, 3-fold serially diluted, 10 points) and His-tagged SOS1 protein (18 nM final assay concentration) were added into the assay plates (384 well microplate, black, Corning) sequentially. Plates are incubated at 24° C. for 1 hr. Following the incubation, Mab Anti-GST-Tb cryptate (Cisbio) and […] (Cisbio) were added and further incubated at 24° C. for another 1 hr. The TR-FRET signals (ex337 nm, em665 nm/620 nm) were read on BMG PHERAstar FSX instrument. The inhibition percentage of KRAS protein binding with SOS1 in presence of increasing concentrations of compounds was calculated based on the ratio of fluorescence at 665 nm to that at 620 nm. The IC50 value of each compound was calculated from fitting the data to the four-parameter logistic model by Dotmatics.

WT KRAS:SOS1 = WT KRAS:SOS1 (Homo sapiens, UniProt P01116); assay: KRAS WT:SOS1 GDP TR-FRET assay; assay type: binding; details: GST-WT KRAS 37.5 nM, GDP 10 μM, His-SOS1 18 nM
Chain of WT KRAS:SOS1 (P01116 1-188 isoform P01116-2): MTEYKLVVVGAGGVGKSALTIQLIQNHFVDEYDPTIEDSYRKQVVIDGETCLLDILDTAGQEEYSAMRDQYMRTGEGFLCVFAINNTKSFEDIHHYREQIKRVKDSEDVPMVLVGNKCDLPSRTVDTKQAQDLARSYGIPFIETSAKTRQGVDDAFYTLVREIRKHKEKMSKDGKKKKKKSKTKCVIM
Experimental: as §1, §2

SMILES | IC50 [1] [nM] | IC50 (KRAS G12D:SOS1) [nM] | IC50 (WT KRAS:SOS1) [nM]
CN(C)CCCOc1nc(N2CCNCC2)c2cc(Cl)c(-c3cc(O)cc4ccccc34)c(F)c2n1 [Example E1, 4-(6-chloro-2-(3-(dimethylamino)propoxy)-8-fluoro-4-(piperazin-1-)quinazolin-7-yl)naphthalen-2-ol] | > 10000 | 1870 | 26900
CN(C)CCCOc1nc(N2CC3CC2CN3)c2cc(Cl)c(-c3ccc(F)c4sc(N)nc34)c(F)c2n1 (stereo not drawn) [Example E3, 4-(4-(2,5-diazabicyclo[2.2.1]heptan-2-yl)-6-chloro-2-(3-(dimethylamino)propoxy)-8-fluoroquinazolin-7-yl)-7-fluorobenzo[d]thiazol-2-amine] | > 10000 | 68 | 3290
CN(C)CCCOc1nc(N2CC3CCC2CN3)c2cc(Cl)c(-c3ccc(F)c4sc(N)nc34)c(F)c2n1 (stereo not drawn) [Example E4, 4-(4-(2,5-diazabicyclo[2.2.2]octan-2-yl)-6-chloro-2-(3-(dimethylamino)propoxy)-8-fluoroquinazolin-7-yl)-7-fluorobenzo[d]thiazol-2-amine] | > 10000 | 39 | 1100
CC(CN1CCCCC1)Oc1nc(N2CC3CCC(C2)N3)c2cc(Cl)c(-c3ccc(F)c4sc(N)nc34)c(F)c2n1 (stereo not drawn) [Example E5, 4-(4-(3,8-diazabicyclo [3.2.1]octan-3-yl)-6-chloro-8-fluoro-2-((1-(piperidin-1-yl)propan-2-yl)_oxy)quinazolin-7-yl)-7-fluorobenzo[d]thiazol-2-amine] | 2870 | 20 | 402
CC(CN1CCCCC1)Oc1nc(N2CC3CC(C2)N3)c2cc(Cl)c(-c3ccc(F)c4sc(N)nc34)c(F)c2n1 (stereo not drawn) [Example E6, 4-(4-(3,6-diazabicyclo[3.1.1]heptan-3-yl)-6-chloro-8-fluoro-2-((1-(piperidin-1-yl)propan-2-yl)oxy)quinazolin-7-yl)-7-fluorobenzo[d]thiazol-2-amine] | 7080 | 18 | 1060
Nc1nc2c(-c3c(Cl)cc4c(N5CC6CCC(C5)N6)nc(OCC56CCCN5CCC6)nc4c3F)ccc(F)c2s1 [Example E7, 4-(4-(3,8-diazabicyclo[3.2.1]octan-3-yl)-6-chloro-8-fluoro-2-((tetrahydro-1H-pyrrolizin-7a(5H)-yl)methoxy)quinazolin-7-yl)-7-fluorobenzo[d]thiazol-2-amine] | 2640 | 4.7 | 11
CC(CN1CCCCC1)Oc1nc(N2C3CCC2CNC3)c2cc(Cl)c(-c3ccc(F)c4sc(N)nc34)c(F)c2n1 (stereo not drawn) [Example E8, 4-(4-(3,8-diazabicyclo[3.2.1]octan-8-yl)-6-chloro-8-fluoro-2-((1-(piperidin-1-yl)propan-2-yl)oxy)quinazolin-7-yl)-7-fluorobenzo[d]thiazol-2-amine] | 1150 | 6.7 | 50
CC(CN1CCCCC1)Oc1nc(N2C3CCC2C(N)C3)c2cc(Cl)c(-c3ccc(F)c4sc(N)nc34)c(F)c2n1 (stereo not drawn) [Example E9, 4-(4-(2-amino-7-azabicyclo[2.2.1]heptan-7-yl)-6-chloro-8-fluoro-2-((1-(piperidin-1-yl)propan-2-yl)oxy)quinazolin-7-yl)-7-fluorobenzo[d]thiazol-2-amine] | 7690 | 26 | 381
CC(CN1C2CCC1CNC2)Oc1nc(N2CC3CCC(C2)N3)c2cc(Cl)c(-c3ccc(F)c4sc(N)nc34)c(F)c2n1 (stereo not drawn) [Example E10, 4-(2-((1-(3,8-diazabicyclo[3.2.1]octan-8-yl)propan-2-yl)oxy)-4-(3,8-diazabicyclo[3.2.1]octan-3-yl)-6-chloro-8-fluoroquinazolin-7-yl)-7-fluorobenzo[d]thiazol-2-amine] | > 10000 | 5.7 | 387
C[C@@H](CN1CCCCC1)Oc1nc(N2CC3CCC(C2)N3)c2cc(Cl)c(-c3ccc(F)c4sc(N)nc34)c(F)c2n1 [Example E11, 4-(4-(3,8-diazabicyclo[3.2.1]octan-3-yl)-6-chloro-8-fluoro-2-(((S)-1-(piperidin-1-yl)propan-2-yl)oxy)quinazolin-7-yl)-7-fluorobenzo[d]thiazol-2-amine] | 859 | 1.9 | 30
C[C@@H](CN1CCCCC1)Oc1nc(N2CC3CC(C2)N3)c2cc(Cl)c(-c3ccc(F)c4sc(N)nc34)c(F)c2n1 [Example E12] | 2020 | 3.5 | 124
CC(CN1CCNCC1)Oc1nc(N2CC3CCC(C2)N3)c2cc(Cl)c(-c3ccc(F)c4sc(N)nc34)c(F)c2n1 (stereo not drawn) [Example E13, 4-(4-(3,8-diazabicyclo[3.2.1]octan-3-yl)-6-chloro-8-fluoro-2-((1-(piperazin-1-yl)propan-2-yl)oxy)quinazolin-7-yl)-7-fluorobenzo[d]thiazol-2-amine] | > 10000 | 8.3 | 537
CO[C@@H]1C[C@@H](COc2nc(N3CC4CCC(C3)N4)c3cc(Cl)c(-c4ccc(F)c5sc(N)nc45)c(F)c3n2)N(C)C1 [Example E14, 4-(4-(3,8-diazabicyclo[3.2.1]octan-3-yl)-6-chloro-8-fluoro-2-(((2S,4R)-4-methoxy-1-methylpyrrolidin-2-yl)methoxy)quinazolin-7-yl)-7-fluorobenzo[d]thiazol-2-amine] | 1160 | 5.3 | 68
CN1C[C@H](F)C[C@H]1COc1nc(N2CC3CCC(C2)N3)c2cc(Cl)c(-c3ccc(F)c4sc(N)nc34)c(F)c2n1 [Example E15, 4-(4-(3,8-diazabicyclo[3.2.1]octan-3-yl)-6-chloro-8-fluoro-2-(((2S,4R)-4-fluoro-1-methylpyrrolidin-2-yl)methoxy)quinazolin-7-yl)-7-fluorobenzo[d]thiazol-2-amine] | 574 | 4.4 | 83
CN1CCC[C@H]1COc1nc(N2CC3CCC(C2)N3)c2cc(Cl)c(-c3ccc(F)c4sc(N)nc34)c(F)c2n1 [Example E16, 4-(4-(3,8-diazabicyclo[3.2.1]octan-3-yl)-6-chloro-8-fluoro-2-(((S)-1-methylpyrrolidin-2-yl)methoxy)quinazolin-7-yl)-7-fluorobenzo[d]thiazol-2-amine] | 1520 | 2.8 | 27
C[C@@H](CN1CCC(F)(F)CC1)Oc1nc(N2CC3CCC(C2)N3)c2cc(Cl)c(-c3ccc(F)c4sc(N)nc34)c(F)c2n1 [Example E17, 4-(4-(3,8-diazabicyclo[3.2.1]octan-3-yl)-6-chloro-2-(((S)-1-(4,4-difluoropiperidin-1-yl)propan-2-yl)oxy)-8-fluoroquinazolin-7-yl)-7-fluorobenzo[d]thiazol-2-amine] | 2880 | 4.2 | 785
C[C@@H](CN1CCCCC1)Oc1nc(N2C3CCC2CNC3)c2cc(Cl)c(-c3ccc(F)c4sc(N)nc34)c(F)c2n1 [Example E18, 4-(4-(3,8-diazabicyclo[3.2.1]octan-8-yl)-6-chloro-8-fluoro-2-(((S)-1-(piperidin-1-yl)propan-2-yl)oxy)quinazolin-7-yl)-7-fluorobenzo[d]thiazol-2-amine] | 528 | 2.5 | 35
